Experimental data published in article PMC9970268 (Cancer Research Communications, 2022).

What was measured:
[1] = biological target: T1, Cdc42(G15A) interaction with Ect2 (Homo sapiens, UniProt P60953, G15A); test: Cdc42 (G15A) pulldown assay, Ect2; format: binding; details: 250 nmol/L, 1 hour preincubation, MDA-MB-231 cell lysates
T1 construct: purchased Cell Biolabs; host or cells: GEF from MDA-MB-231 lysate
Experimental: MDA-MB-231 cells were lysed in 1% Triton X-100, 20 mmol/L HEPES, pH 7.4, 150 mmol/L NaCl, 5 mmol/L MgCl2, and protease inhibitors, and processed as described previously ([20]). Equal amounts of protein from cleared lysates were incubated for 1 hour at 4°C with glutathione-agarose beads conjugated to GST-Rac1 and GST-Cdc42(G15A) nucleotide-free mutant (Cell Biolabs) that were preincubated (for 1 hour) with vehicle or Rac/Cdc42 inhibitors, as indicated. The beads were washed, and pulldowns were immunoblotted for Vav2 or Ect2.

HMEC cells = test: Cell viability (MTT) assay; format: cell-based, human; details: 120 hours, 0 to 1,000 nmol/L
Experimental: Using CellTiter 96 Non-Radioactive Cell Proliferation Assay (Promega, Corp.) according to manufactures’ instructions, formazan was used as an indicator of viable cells at an absorbance 570 nm in a Tecan Microplate Reader M100 (Tecan). Data were calculated as fold change from vehicle and transformed to logarithm base 10. 0 concentration was replaced with 1 nmol/L to fit using the 4-parameter logic nonlinear regression model in GraphPad Prism software. (n = 3 biologic replicates: with three technical replicates each).

MDA-MB-231 cells = test: Phalloidin staining of F-actin, cell phenotype; format: cell-based, human; details: 250 nmol/L, 12 hours
Excerpt: Cells were fixed, permeabilized, and stained with rhodamine phalloidin to visualize F-actin as described previously ([23]). Fluorescence micrographs were acquired at 40× in a Keyence fluorescence microscope.

A549 lung cancer cells = test: EGF-induced ruffle formation; format: cell-based, human; details: 24 hours, then EGF 200 ng/mL; for loss in ruffles: 500 nmol/L; for decrease in ruffles: 1,000 nmol/L
Experimental: Cells were fixed with 4% formaldehyde and F-actin stained with rhodamine phalloidin. Slides were visualized by fluorescence microscopy and five random fields were scored for the number of ruffles. Ruffle area was measured by thresholding for single intensity using ImageJ/Fiji software, as in ref. [29].

[2] = system: GFP-HER2-BM mammary fatpad tumors; test: Orthotopic spontaneous metastasis mouse model; format: in vivo; details: for weight and liver toxicity (aspartate transaminase and alanine transaminase from plasma): 5× a week at 5 mg/kg for 53 days
Experimental: All animal studies were conducted under approved protocol A8180118 Institutional Animal Care and Use Committee, in accordance with the NIH Guideline for the Care and Use of Laboratory Animals. Female SCID mice, 3–4 weeks old (Charles River Laboratories, Inc.), were maintained under pathogen-free conditions in High Efficiency Particulate Air (HEPA)-filtered cages.
GFP-HER2-BM (∼7 × 10^5) cells in Matrigel (BD Biosciences) were injected at the fourth right mammary fat pad under isoflurane inhalation (1%–3% in oxygen using an inhalation chamber at 2 L/minute) to produce orthotopic primary tumors. After tumor establishment (1-week after inoculation), animals were randomly divided into treatment groups (n = 5).
[…]. Treatments continued until sacrifice at day 53.
Mammary tumor growth was quantified by integrated density of GFP fluorescence. After tumor establishment, mice were imaged before starting treatment, and once a week thereafter for 53 days, using the iBoxScientia (Analytik-Jena GmbH). Tumor fluorescence intensities were analyzed using ImageJ software (NIH, Bethesda, MD). Relative tumor growth was calculated as the integrated density of fluorescence of each tumor on each day of imaging relative to the integrated density of fluorescence of the same tumor on day 1 of treatment. After sacrifice at day 60, lungs, kidneys, livers, and spleens were excised and immediately stored in liquid N2. To quntify metastasis, stored organs were thawed and analyzed, as whole organs on both sides, using an Olympus MV10 fluorescence macro zoom system microscope and images acquired with an Olympus DP71 digital camera. The fluorescent lesions (green component of RGB images) were quantified for integrated density of fluorescent pixels using Image J software.

Rho = Rho activation assay (Rho.GTP-binding domain of Rhotekin); format: cell-based, human; details: 250 nmol/L
Excerpt: Cells were lysed and equal amounts of proteins were subjected to pulldown assays using the p21-binding domain of PAK to isolate the GTP bound Rac1 or Cdc42. […] Top, Pulldown showing GTP bound Rac1; Middle, Total Rac1 in lysates; Bottom, Actin as a loading control. B, Right, Results from positive bands in Western blots quantified using ImageJ. […] Top band, Rac1B.GTP from the pulldown; Middle band, Total Rac1B from cell lysates; Bottom band, Actin (N = 3). […] Top, Pulldown showing GTP bound Cdc42; Middle, Total Cdc42 in lysates; Bottom, Actin as a loading control. E, Right, Results from positive bands in Western blots quantified using ImageJ. […] (n = 3–4; *, P < 0.05; **, P < 0.01; ns, not significant). Error bars represent SEM. […] Rho activation assay was done using the Rho.GTP-binding domain of Rhotekin. […] Cells were lysed and Western blotted for total and active PAK. Left, Top, Cell lysates probed with an anti PAK1/2/3 antibody; second, Western blot analysis with anti phospho (p)-PAK (1/2/3)^Ser141,144,154; third, Western blot analysis with p-PAK (1/2/3)^Thr423; fourth, Anti actin. H, Fold change in p-PAK/PAK for PAK 1/3 (68 kD) for total p-PAK^Ser141,144,154 and p-PAK^Thr423. (n = 3; **, P < 0.01; ***, P < 0.001; ns, not significant). […] Tumor lysates were Western blotted with antibodies specific for Rac1, Cdc42, PAK1/2/3, p-PAK (1/2/3)^Ser141,144,154, or p-PAK^Thr423. […]

[3] = system: MDA-MB-231, GFP-HER2-BM, and MDA-MB-468 cells; test: Apoptosis assay (Caspase-Glo3/7), cell line not specified; format: cell-based, human; details: 500 nmol/L, 48 hours
Experimental: Apoptosis was measured using a Caspase-Glo3/7 Luminescence Assay Kit as per manufacturer's instructions (Promega, Corp.), as described previously ([23]). Briefly, Caspase-3/7 Glo reagent was added and incubated at room temperature for 60 minutes and caspase-3/7 activities were determined by detecting luminescence using Tecan Microplate Reader M100 (Tecan). Data were calculated as fold change from vehicle. (n = 3 biologic replicates: with three technical replicates each).

[4] = 5 mg/kg BW, intraperitoneal, 53 days

T1 sequence (P60953 whole entry G15A): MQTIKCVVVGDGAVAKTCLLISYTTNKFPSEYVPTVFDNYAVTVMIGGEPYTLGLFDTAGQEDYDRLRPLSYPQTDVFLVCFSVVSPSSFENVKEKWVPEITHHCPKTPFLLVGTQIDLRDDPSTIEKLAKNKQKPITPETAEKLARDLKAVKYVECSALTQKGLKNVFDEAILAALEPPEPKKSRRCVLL

Row | Structure (SMILES) | Cdc42(G15A) interaction with Ect2 [1] | effect on viability of HMECs (HMEC cells) | cell phenotype, actin cytoskeleton (MDA-MB-231 cells) | loss in ruffles (A549 lung cancer cells) | decrease in ruffles (A549 lung cancer cells) | inhibition in tumor growth compared with vehicle [2, 4] | inhibition of lung, liver, and kidney metastases compared with vehicle [2, 4] | weight and liver toxicity (aspartate transaminase and alanine transaminase from plasma) [2] | Rho activation (Rho) | caspase-3/7 activity compared with the vehicle [3]
1 | CCn1c2ccccc2c2cc(-n3nncc3-c3ccccc3)ccc21 [MBQ-167] | no effect | did not affect the viability of HMECs | acquired a round shape with punctate actin staining | 54% | 63% | approximately 90% | approximately 90% | did not significantly change weight or liver toxicity | do not affect | 
2 | CCn1c2ccccc2c2cc(-n3nncc3-c3cccc(OC)c3)ccc21 [MBQ-168] | no effect | did not affect the viability of HMECs | acquired a round shape with punctate actin staining | 67% | 79% | approximately 90% |  | did not significantly change weight or liver toxicity | do not affect | three to five times
